Assay results from US20160375006A1, “USES OF PARALOG-SELECTIVE INHIBITORS OF GSK3 KINASES” (priority 2012, published 2016).
Converted amounts (≈) assume the structure as drawn. “Also recorded” adds a separate entry of the source.

How the values were obtained:
in vitro = settings: mouse, plasma, pH 7.4
Method: Plasma protein binding was determined by equilibrium dialysis using the Rapid Equilibrium Dialysis (RED) device (Pierce Biotechnology, Rockford, Ill.) for both human and mouse plasma. […] Compounds were incubated at 37° C. for 5 hours with a 250 rpm orbital shake.

GSK3α = GSK3α (Homo sapiens, UniProt P49840); settings: read-out: Caliper Assay, GSK3α IC50
[1] = in mice, 60 min
GSK3β [2] = molecular target: T1, GSK3β (Homo sapiens, UniProt P49841); settings: GSK3β over GSK3α
Method: Reactions were terminated by the addition of 10 mM EDTA. Substrate and product were separated electrophoretically and fluorescence intensity of the substrate and product was determined by Labchip EZ Reader II (Caliper Life Sciences, MA). The kinase activity was measured as percent conversion. The reactions were performed in duplicate for each sample. […] The results were analyzed by Genedata Assay Analyzer. The percent inhibition was plotted against the compound concentration and the IC50 value was determined from the logistic dose-response curve fitting.

HL-60 and U937 cells = assay: GE-HTS 32-gene myeloid differentiation signature; assay type: cell-based; settings: three days
Description: This assay uses ligation-mediated amplification with a fluorescent bead-based detection system to quantify the expression of up to 500 genes in a single well. Two primary scoring methods are used to quantify induction of the 32-gene myeloid differentiation signature. The Summed Score combines expression ratios (marker gene/control gene) by summing them with a sign determined by the expected direction of regulation from ATRA-treated positive controls. The Weighted Summed Score combines expression ratios by summing them with a weight and sign determined by the signal-to-noise ratio of each expression ratio for the positive control (ATRA-treated) and negative control (DMSO-treated) samples. To assess the statistical significance of the differences between these differentiation scores a one-way ANOVA with a Bonferroni correction as a post-hoc test was employed.

AML cell lines = assay: May-Grunwald Giemsa morphology of AML cell lines; assay type: cell-based; settings: three days after treatment
Method: On day three post-chemical treatment, cytospin preparations were performed. Changes in cellular morphology were evaluated by May-Grunwald Giemsa staining (Sigma Aldrich). Images were acquired by light microscopy at 400× magnification.

[3] = Pharmacokinetics and brain distribution in male C57BL/6 mice; settings: single i.p. dose 30 mg/kg (CHIR99021 12.5 mg/kg)
[4] = system: amphetamine-induced hyperactivity; assay: Amphetamine-induced hyperactivity (AIH) in mice; assay type: in vivo, mouse; settings: versus vehicle
GSK3β [5] = molecular target: T1, GSK3β; assay: Mechanism of action: ATP competition at GSK3β (Lineweaver-Burk, IC50 at two ATP concentrations); assay type: biochemical; settings: versus ATP
Method: . IC50s were measured against GSK3β at two different ATP concentrations. […]

human iPSC-NPCs = assay: Neurogenesis assay (TCF/LEF-luciferase in human iPSC-NPCs); assay type: cell-based; settings: 24-h treatment
Method: Human neuroprogenitor cells were generated and derived according to methods known in the art. […] Single-cell suspensions were prepared from the human iPSC-NPCs, stably integrated with the TCF/LEF-luciferase reporter, and dispensed into 96- or 384-well plates at the seeding densities of 20,000 or 6,000 per well, respectively, using a Matrix WellMate (Thermo Scientific) microplate dispenser. A 96-well plate format was used for measuring Wnt3a and lithium (lithium chloride solution, 10 M; Fluka, St. Louis, Mo.) dose-response effects, whereas a 384-well plate format was used for all small-molecule probe treatments and chemical screening. The next day, cells were subjected to various 24-h treatments. Just prior to the luminescence reading, the plates were taken out of a 37° C. incubator and equilibrated to room temperature for 30 min before the SteadyGlo reagent (Promega, Madison, Wis.) was dispensed (volume equal 1:1 SteadyGlo:culture medium). Luminescence was measured after a 10-min incubation using an EnVision multilabel plate reader (PerkinElmer, Waltham, Mass.).

T1 sequence (P49841 whole entry): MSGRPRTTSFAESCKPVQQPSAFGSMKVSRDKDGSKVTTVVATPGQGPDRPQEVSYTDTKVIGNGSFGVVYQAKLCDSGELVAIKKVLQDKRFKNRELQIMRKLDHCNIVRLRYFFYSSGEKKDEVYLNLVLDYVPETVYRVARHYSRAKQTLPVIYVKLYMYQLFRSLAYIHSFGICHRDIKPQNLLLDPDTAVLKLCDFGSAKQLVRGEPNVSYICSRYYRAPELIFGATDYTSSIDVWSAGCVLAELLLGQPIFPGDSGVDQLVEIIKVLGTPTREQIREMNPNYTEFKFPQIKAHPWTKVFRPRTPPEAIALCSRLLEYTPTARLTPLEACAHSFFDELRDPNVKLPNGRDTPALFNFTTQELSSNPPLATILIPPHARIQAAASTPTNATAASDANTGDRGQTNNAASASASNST
GSK3α, sequence (P49840 whole entry): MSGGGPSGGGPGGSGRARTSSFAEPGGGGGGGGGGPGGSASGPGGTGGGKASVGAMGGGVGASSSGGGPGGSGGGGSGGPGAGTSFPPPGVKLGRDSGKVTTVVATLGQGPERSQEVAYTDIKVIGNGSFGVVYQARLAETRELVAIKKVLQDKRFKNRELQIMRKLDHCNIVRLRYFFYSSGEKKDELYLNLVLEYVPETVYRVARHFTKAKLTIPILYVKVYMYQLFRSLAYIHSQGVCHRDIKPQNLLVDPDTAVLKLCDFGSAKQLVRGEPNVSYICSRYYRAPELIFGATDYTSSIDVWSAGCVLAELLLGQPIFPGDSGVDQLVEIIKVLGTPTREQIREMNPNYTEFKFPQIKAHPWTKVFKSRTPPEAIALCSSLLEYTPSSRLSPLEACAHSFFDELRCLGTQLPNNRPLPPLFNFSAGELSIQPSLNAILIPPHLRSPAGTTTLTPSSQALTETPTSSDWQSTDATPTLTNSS
Method for physchem: Solubility was determined in phosphate buffered saline (PBS) pH 7.4 with 1% DMSO. Each compound was prepared in duplicate at 100 μM in both 100% DMSO and PBS with 1% DMSO. Compounds were allowed to equilibrate at room temperature with a 250 rpm orbital shake for 24 hours.

Cc1[nH]nc2c1C(c1ccccc1)(C(F)(F)F)C1=C(CC(C)(C)CC1=O)N2 (stereo not shown) [Compound 83]
fraction unbound at 5 h, 5 μM (in vitro): 0.102 | solubility (physchem): 410 µM (≈ 154 µg/mL) | IC50 (GSK3α): < 100 nM | Microsomal stability 60 min [1]: 51.5

CC1(C)CC(=O)C2=C(C1)Nc1n[nH]c(C(F)(F)F)c1C2(C)c1ccccc1 (racemic) [Compound 70, 4,7,7-trimethyl-4-phenyl-3-(trifluoromethyl)-6,7,8,9-tetrahydro-2H-pyrazolo[3,4-b]quinolin-5(4H)-one]
GSK3β fold selectivity (GSK3β [2]): 5 fold | AML differentiation by GE-HTS signature (HL-60 and U937 cells): induces AML (acute myeloid leukemia) differentiation by GE-HTS signature; also recorded: induced a gene expression signature in AML cell lines consistent with myeloid differentiation | Morphological AML differentiation (May-Grunwald Giemsa) (AML cell lines): induces morphological evidence of AML (acute myeloid leukemia) differentiation | Morphological AML differentiation (May-Grunwald Giemsa) (AML cell lines; listed as compound 70): demonstrated cellular differentiation | Pharmacokinetic profile (systemic exposure, brain distribution) compared to CHIR99021 [3]: improved pharmacokinetic profile | Amphetamine-induced hyperactivity, i.p. ([4]; systemic intraperitoneal injection): attenuate amphetamine-induced hyperactivity

COc1ccccc1[C@@H]1C2=C(CC(C)(C)CC2=O)Nc2n[nH]c(C)c21 [Compound 22]
Mode of inhibition of GSK3β (GSK3β [5]): competitive inhibition | Neurogenesis (human iPSC-NPCs): promoted neurogenesis | Amphetamine-induced hyperactivity, ICV ([4]; intracerebroventricular injection): attenuate amphetamine-induced hyperactivity
